Measurements from US20230295088A1, “INSULIN SENSITIZERS FOR THE TREATMENT OF DIABETES MELLITUS” (University of Iowa Research Foundation, priority 2020, published 2023).
Entries after “also recorded” stand apart in the source; their conditions may differ.

What was measured:
[1] = system: GLUT4 translocation in HBG4 mice; experiment: In vivo GLUT4 translocation in HBG4 mice (IVIS luminescence); parameters: species or system mouse; settings: DIO HBG4 mice treated for 2 weeks, insulin 10 minutes before substrate
Procedure: C3 potentiates insulin action in primary adipocytes and in live mice. Using HBG4 mice, insulin stimulated GLUT4 translocation of endogenous GLUT4 was measured in primary skeletal muscle fibers and primary adipocytes. Enhancement of insulin-stimulated translocation of endogenous GLUT4 was also shown in primary adipocytes in the presence of C3. In parallel dishes, increased insulin-stimulated glucose uptake in HBG4 primary adipocyte treated with C3 was found. […] To determine if the HBG4 mouse can be used to measure GLUT4 translocation in vivo, HBG4 mice were pretreated with daily IP injections of vehicle or 50 mg/Kg C3 for 3 days. On the day of the experiment, mice were injected with vehicle or insulin IP followed by a subcutaneous injection of LgBiT and substrate around the leg muscles. Mice were then anesthetized and placed into an IVIS system to measure luminescence. […] Baseline signal was detected in vehicle and C3 treated HBG4 mice. […]
DIO HBG4 mice were treated with vehicle or C59 for 2 weeks and injected i.v. with an adenovirus coding for a secreted form of LgBiT (allowing LgBiT production and secretion predominantly by the liver into the circulation) 2 days prior to the experiment. Animal were then injected with saline or insulin 10 minutes before i.v. injection of substrate and luminescence imaging using an IVIS system.

[2] = system: diet-induced obese (DIO) mice; experiment: Glucose tolerance, fasting glucose and insulin in diet-induced obese (DIO) insulin-resistant mice; assay type: in vivo, mouse; settings: DIO mice, C59 treatment
Procedure: To test whether C3 improves glucose handling, WT mice were made insulin-resistant by feeding them a high fat diet (HFD) for a period of 10 weeks. After 10 weeks, mice were injected with vehicle. C3 (20 mg/kg), or the TZD rosiglitazone (20 mg/kg) for 2 weeks while remaining on the HFD. […] To further test the in vivo efficacy of C3, a glucose tolerance test (GTT) was perfromed.
To test whether C3 improves glucose handling, lean mice were injected with vehicle or C3 30 minutes before performing a glucose tolerance test. […] To further determine if C3 can reverse glucose intolerance, WT mice were made insulin-resistant by feeding them a high fat diet (HFD) for a period of 10 weeks. Diet induced obese (DIO) mice were then injected with vehicle or C3 for 2 weeks while remaining on HFD.

PPARg = target: T1, PPARg (Homo sapiens, UniProt P37231); experiment: Luminescent PPARg reporter assay in vitro; assay type: cell-based
T1 sequence (P37231 1-505): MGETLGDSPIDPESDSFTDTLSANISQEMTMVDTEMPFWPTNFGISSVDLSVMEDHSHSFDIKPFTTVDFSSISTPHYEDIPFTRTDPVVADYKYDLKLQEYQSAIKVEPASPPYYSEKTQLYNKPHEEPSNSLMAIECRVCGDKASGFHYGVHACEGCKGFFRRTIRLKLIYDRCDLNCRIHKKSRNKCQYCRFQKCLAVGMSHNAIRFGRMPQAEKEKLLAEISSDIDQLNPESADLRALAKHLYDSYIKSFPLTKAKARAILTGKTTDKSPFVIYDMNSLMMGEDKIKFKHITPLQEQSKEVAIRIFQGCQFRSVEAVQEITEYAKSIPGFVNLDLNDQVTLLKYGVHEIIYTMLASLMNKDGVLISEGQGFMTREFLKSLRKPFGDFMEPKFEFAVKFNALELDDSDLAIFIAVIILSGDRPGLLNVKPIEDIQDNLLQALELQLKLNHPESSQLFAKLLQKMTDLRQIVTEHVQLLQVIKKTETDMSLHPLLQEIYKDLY
Source text: C3 is not liver toxic and acts through a different mechanism than TZDs. […] Deleterious side effect or TZDs are due to their agonism of PPARg.

Unc119 = target: T2, Unc119 (Mus musculus, UniProt Q9Z2R6); experiment: Proteome Integral Solubility Alteration (PISA) assay, Unc119; assay type: binding; parameters: dose or concentration left out as unconfirmed
T2 construct: endogenous in cells
Source text: (§1) Identification of the molecular target of C59. Since the discovery of C59 as an insulin sensitizer was achieved using a phenotypic screen, the molecular target of the compound was unknown. To identify the target, a Proteome Integral Solubility Alteration (PISA) assay was used. […] To measure the shift in thermal stability, constructs coding for Unc119-HiBiT and Unc119b-HiBit were generated, thus allowing the quantitative detection of those proteins by adding LgBiT and furimazin to the lysates and measuring luminescence. Crude extract from cells transfected with Unc119-HiBiT or Unc119b-HiBiT, were incubated with DMSO or C59 for 10 minutes, aliquoted, heated for 3 minutes at the indicated temperature and allowed to cool down to room temperature before adding LgBiT and furimazin and reading luminescence on a plate reader.

Unc119b = target: T3, Unc119b (Mus musculus, UniProt Q8C4B4); experiment: Proteome Integral Solubility Alteration (PISA) assay, Unc119b; assay type: binding; parameters: dose or concentration left out as unconfirmed
T3 construct: endogenous in cells
Source text: as §1

Unc119 KO HBG4 cells = experiment: Insulin-stimulated GLUT4 translocation in Unc119 KO HBG4 cells; assay type: cell-based, mouse
Procedure: (§2) Unc119 and Unc119b are important for the insulin sensitizing effect of C59. After identifying Unc119 proteins as molecular targets for C59, it was tested whether those proteins were responsible for the insulin sensitizing activity of C59. To this end Unc119 and Unc119b KO HBG4 cells were generated using CRISPR/Cas9 technology. For each of those cell lines two gRNA surrounding the start codon were used, thus resulting in a deletion of a fragment of the Unc119 genes that includes the ATG. Deletion of Unc119 and Unc119b in clonal cell lines were screened and verified by PCR (FIG. 4E). The effect of C59 on insulin-stimulated. […] To further test this finding, 3H-Deoxy-D-Glucose uptake in WT, Unc119 KO and Unc119b KO HBG4 cells treated with vehicle, insulin, C59 alone and C59 with insulin was measured.

Unc119b KO HBG4 cells [3] = experiment: Insulin-stimulated GLUT4 translocation in Unc119b KO HBG4 cells; assay type: cell-based, mouse
Procedure: as §2

WT HBG4 cells = experiment: 3H-Deoxy-D-Glucose uptake in WT HBG4 cells; assay type: cell-based, mouse
Procedure: as §2

Unc119b KO HBG4 cells [4] = experiment: 3H-Deoxy-D-Glucose uptake in Unc119b KO HBG4 cells; assay type: cell-based, mouse
Procedure: as §2

[5] = Solubility in aqueous solution; assay type: physicochemical; settings: compared with C3

T3 sequence (Q8C4B4 whole entry): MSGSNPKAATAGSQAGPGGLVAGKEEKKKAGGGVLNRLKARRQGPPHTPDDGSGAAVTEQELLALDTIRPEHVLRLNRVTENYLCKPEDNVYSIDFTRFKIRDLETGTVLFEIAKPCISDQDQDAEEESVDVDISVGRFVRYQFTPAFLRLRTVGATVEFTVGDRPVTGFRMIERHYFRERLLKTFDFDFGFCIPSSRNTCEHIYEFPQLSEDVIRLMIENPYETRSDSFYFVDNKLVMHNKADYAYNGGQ

thermostability of Unc119 (PISA) (Unc119; lysates (crude extract)): increased the thermostability | thermostability of Unc119b (PISA) (Unc119b; lysates (crude extract)): increased the thermostability | solubility in aqueous solution [5]: improved solubility
Compound: O=C(Nc1ccc(Cl)c(Cl)c1)C12CC3CC(CC(C3)C1)C2 [Compound C59]
insulin-stimulated GLUT4 translocation in vivo [1]: very significantly improved | glucose handling in DIO mice [2]: drastically improves | PPARg agonist activity (PPARg): neither C3 nor C59 have PPARγ agonist activity | thermostability of Unc119 (PISA) (Unc119; live cells, vs DMSO and C29): increased the thermostability; also recorded: concentration dependent increased thermostability | thermostability of Unc119b (PISA) (Unc119b; live cells, vs DMSO and C29): increased the thermostability; also recorded: concentration dependent increased thermostability | insulin-stimulated GLUT4 translocation (Unc119 KO HBG4 cells): failed to enhance | insulin-stimulated GLUT4 translocation (Unc119b KO HBG4 cells [3]): failed to enhance | 3H-Deoxy-D-Glucose uptake, compound alone (WT HBG4 cells; no insulin): did not stimulate | insulin stimulated 3H-Deoxy-D-Glucose uptake (WT HBG4 cells; with insulin): significantly increased | 3H-Deoxy-D-Glucose uptake, compound alone (Unc119b KO HBG4 cells [4]; no insulin): did not stimulate | insulin stimulated 3H-Deoxy-D-Glucose uptake (Unc119b KO HBG4 cells [4]; with insulin): failed to do so
